Measured values reported in patent publication US11072612B2, “NLRP3 modulators” (INNATE TUMOR IMMUNITY, INC., priority 2016, dated 2021).

Key:
Type in all cases: cell-based
hNLRP3 = target: T1, hNLRP3 (Homo sapiens, UniProt Q96P20); experiment: hNLRP3 agonist assay: IL-1β production in PMA-differentiated THP-1 cells (ELISA); details: Table 2, 4 hours, IL-1β by ELISA
T1 construct: THP-1 cells were purchased from the American Type Culture Collection; host or cells: THP-1 cells, PMA-differentiated
T1 sequence (Q96P20 whole entry): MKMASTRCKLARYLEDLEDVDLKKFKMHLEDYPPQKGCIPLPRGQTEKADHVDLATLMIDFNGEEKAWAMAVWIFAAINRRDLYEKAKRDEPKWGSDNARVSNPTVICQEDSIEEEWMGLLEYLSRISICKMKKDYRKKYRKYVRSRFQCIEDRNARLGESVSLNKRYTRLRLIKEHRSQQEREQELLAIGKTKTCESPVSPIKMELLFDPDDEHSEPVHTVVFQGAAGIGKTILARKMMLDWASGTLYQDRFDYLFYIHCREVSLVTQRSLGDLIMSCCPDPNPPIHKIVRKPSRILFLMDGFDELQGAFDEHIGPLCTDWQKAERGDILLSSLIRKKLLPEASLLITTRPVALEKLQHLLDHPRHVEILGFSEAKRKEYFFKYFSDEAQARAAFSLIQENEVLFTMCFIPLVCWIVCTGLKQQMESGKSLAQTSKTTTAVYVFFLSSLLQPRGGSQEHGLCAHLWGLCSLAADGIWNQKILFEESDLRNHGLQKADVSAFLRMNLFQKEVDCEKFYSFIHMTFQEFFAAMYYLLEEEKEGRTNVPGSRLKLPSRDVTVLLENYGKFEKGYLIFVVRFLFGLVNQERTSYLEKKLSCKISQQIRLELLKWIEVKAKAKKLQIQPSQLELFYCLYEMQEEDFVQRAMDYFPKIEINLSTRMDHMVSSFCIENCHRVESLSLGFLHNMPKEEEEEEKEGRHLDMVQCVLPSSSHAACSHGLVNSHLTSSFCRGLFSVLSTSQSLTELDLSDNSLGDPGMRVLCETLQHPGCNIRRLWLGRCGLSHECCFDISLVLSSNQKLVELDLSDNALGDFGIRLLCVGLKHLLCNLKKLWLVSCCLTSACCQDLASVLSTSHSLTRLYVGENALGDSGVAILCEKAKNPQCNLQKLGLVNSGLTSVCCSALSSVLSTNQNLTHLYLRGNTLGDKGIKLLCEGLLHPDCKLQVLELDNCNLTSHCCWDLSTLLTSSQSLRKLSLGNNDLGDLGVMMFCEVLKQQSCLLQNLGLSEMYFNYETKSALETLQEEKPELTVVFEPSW

TLR7 = target: T2, TLR7 (Homo sapiens, UniProt Q9NYK1); experiment: TLR7 EC50 assay; details: Table 2
T2 sequence (Q9NYK1 27-1049): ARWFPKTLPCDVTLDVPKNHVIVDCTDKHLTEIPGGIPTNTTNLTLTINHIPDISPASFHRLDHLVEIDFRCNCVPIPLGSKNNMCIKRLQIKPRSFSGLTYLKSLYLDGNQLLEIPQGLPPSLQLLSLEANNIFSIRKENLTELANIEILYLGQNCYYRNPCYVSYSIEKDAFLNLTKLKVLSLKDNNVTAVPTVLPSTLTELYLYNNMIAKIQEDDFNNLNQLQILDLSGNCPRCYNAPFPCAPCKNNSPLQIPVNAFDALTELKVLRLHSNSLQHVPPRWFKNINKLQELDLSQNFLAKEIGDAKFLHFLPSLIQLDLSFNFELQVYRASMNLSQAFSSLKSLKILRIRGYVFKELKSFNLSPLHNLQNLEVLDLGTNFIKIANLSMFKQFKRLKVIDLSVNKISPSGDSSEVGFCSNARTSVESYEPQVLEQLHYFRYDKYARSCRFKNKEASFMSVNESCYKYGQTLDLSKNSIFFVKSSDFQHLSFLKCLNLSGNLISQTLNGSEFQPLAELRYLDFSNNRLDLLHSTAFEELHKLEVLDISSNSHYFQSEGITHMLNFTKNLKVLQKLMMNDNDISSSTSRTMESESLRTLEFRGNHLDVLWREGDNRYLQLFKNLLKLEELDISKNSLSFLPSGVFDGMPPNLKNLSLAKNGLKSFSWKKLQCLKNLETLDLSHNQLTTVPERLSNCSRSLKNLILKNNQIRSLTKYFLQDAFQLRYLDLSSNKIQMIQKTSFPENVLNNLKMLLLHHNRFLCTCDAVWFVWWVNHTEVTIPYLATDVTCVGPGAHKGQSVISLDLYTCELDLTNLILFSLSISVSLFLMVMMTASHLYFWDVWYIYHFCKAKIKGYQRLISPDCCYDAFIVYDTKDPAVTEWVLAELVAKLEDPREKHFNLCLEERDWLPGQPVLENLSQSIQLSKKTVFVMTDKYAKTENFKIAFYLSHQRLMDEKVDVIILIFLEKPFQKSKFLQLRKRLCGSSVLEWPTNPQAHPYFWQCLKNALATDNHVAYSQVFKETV

TLR8 = target: T3, TLR8 (Homo sapiens, UniProt Q9NR97); experiment: TLR8 EC50 assay; details: Table 2
T3 sequence (Q9NR97 27-1041): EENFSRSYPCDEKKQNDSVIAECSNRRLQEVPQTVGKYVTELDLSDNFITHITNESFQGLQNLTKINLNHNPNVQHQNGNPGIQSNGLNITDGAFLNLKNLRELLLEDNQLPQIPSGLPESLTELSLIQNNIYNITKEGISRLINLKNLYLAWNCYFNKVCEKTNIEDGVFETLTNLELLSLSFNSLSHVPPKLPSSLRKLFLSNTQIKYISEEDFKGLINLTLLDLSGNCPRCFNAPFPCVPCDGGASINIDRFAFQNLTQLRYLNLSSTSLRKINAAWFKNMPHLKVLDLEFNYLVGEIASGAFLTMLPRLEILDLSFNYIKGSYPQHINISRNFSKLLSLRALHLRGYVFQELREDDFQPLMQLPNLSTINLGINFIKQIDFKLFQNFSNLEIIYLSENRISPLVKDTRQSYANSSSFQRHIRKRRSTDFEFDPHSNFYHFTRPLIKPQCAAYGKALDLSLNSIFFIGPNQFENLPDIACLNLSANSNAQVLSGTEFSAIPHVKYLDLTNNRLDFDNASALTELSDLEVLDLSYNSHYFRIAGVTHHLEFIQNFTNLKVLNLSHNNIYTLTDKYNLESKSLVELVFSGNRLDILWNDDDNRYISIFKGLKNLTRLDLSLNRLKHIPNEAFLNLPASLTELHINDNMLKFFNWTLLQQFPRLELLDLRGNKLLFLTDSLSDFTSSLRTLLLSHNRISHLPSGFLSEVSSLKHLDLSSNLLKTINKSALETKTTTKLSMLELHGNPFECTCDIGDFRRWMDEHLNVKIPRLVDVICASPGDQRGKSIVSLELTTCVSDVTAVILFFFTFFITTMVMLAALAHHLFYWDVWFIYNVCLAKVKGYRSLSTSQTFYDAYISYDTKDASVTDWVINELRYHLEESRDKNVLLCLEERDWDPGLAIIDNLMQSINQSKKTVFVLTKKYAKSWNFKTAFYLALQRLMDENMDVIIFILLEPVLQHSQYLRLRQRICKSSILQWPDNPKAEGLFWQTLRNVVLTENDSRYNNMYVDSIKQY

EC50 (hNLRP3) [µM] | EC50 (TLR7) [µM] | EC50 (TLR8) [µM] | Compound
> 100 | > 100 | > 100 | Nc1nc2cc(-c3ccccc3F)ccc2c2[nH]c(CCCO)nc12 [Compound 203, 3-[4-amino-7-(2-fluorophenyl)-1H-imidazo[4,5-c]quinolin-2-yl]propan-1-ol]
1 to 20 | > 100 | 20 to 100 | Cc1ccc2c(c1)nc(N)c1nc(CCCO)[nH]c12 [Compound 111]
1 to 20 | > 100 | > 100 | Cn1c(CCCO)nc2c3ccc(-n4cccn4)cc3nc(N)c21 [Compound 113]
